Data on two compounds can be found in EPA's ToxValDB 9.5 (doi:10.2903/j.efsa.2014.3692).

The structures appear in SMILES notation. In brackets after ≈: the same amount, converted by molar mass. Bounds are passed on as bounds.

One data set concerns Rattus norvegicus. The conditions noted are these: for LD50: acute, mortality.
The test system of a further data set is Colinus virginianus. The settings on record: for LD50: acute, oral, mortality.
Another data set has as its system Mus musculus. The conditions noted are these: acute; oral; mortality.
The test system of a further data set is Bibionidae. The settings on record: chronic/long-term; duration: 28 days.
The subject of the next data set is Canidae. The settings on record: reproduction developmental; duration: 90 days; Dog Other; mortality.
The next data set relates to Cyprinodon variegatus. The settings on record: mortality.
The subject of a further data set is Chironomus tentans. The conditions noted are these: acute, mortality.
The next data set concerns Apis mellifera. The settings on record: acute, mortality.

Take `CC(O)c1ccc(C(F)(F)F)nc1` (centres undefined) [1-(6-(Trifluoromethyl)pyridin-3-yl)ethanol]: the values for the LD50 in the data set with Rattus norvegicus and in the data set on Colinus virginianus were 2000 mg/kg and 1040 mg/kg, respectively.

`CC(c1ccc(C(F)(F)F)nc1)S(C)(=O)=NC#N` (centres undefined) [Sulfoxaflor]: the LD50 in the data set with Mus musculus was 750 mg/kg; with Rattus norvegicus (oral), 1000 mg/kg; with Colinus virginianus (diet), above 1150 mg/kg-day; in the data set on Colinus virginianus it was 676 mg/kg; with Apis mellifera (duration: 48 hours, oral, unspecified), 0.146 µg/piece; with Apis mellifera (duration: 72 hours, dermal) it was 0.379 µg/piece. The compound further came in with an LD50 with Anas platyrhynchos (short-term, oral, feed, mortality) above 1050 mg/kg-day. In addition, the NOAEL in the data set on Rattus norvegicus (chronic, duration: 2 years, other) is 4.24 mg/kg-day; in the data set with Rattus norvegicus (repeat dose other, neurology), 25 mg/kg-day; with Rattus norvegicus (subchronic, duration: 90 days, oral, histopathology: nonneoplastic) it was 6.36 mg/kg-day; in the data set on Canidae it was 6.63 mg/kg-day; in the data set on Colinus virginianus (reproduction developmental, reproduction) it was 84.4 mg/kg-day; with Anas platyrhynchos (reproductive, reproduction) it was 25.9 mg/kg-day. The NOEC is 0.0384 mg/L with Bibionidae; 1.21 mg/L with Cyprinodon variegatus (chronic/long-term, duration: 38 days); 0.1 mg/kg with Tagia sp. (chronic/long-term, duration: 8 weeks); 0.114 mg/L in the data set with Neomysis kadiakensis (chronic/long-term, duration: 28 days, reproduction). Also, the LC50 in the data set with Cyprinodon variegatus (acute, duration: 96 hours) was found to be 266 µg/mL (≈ 959 µM); in the data set with Chironomus tentans (duration: 96 hours) it was 0.622 µg/mL (≈ 2.24 µM); with Chironomus tentans (duration: 10 days), 0.119 mg/kg; in the data set with Tagia sp. (acute, duration: 14 days, mortality), 0.885 mg/kg; with Neomysis kadiakensis (acute, duration: 96 hours, mortality), 0.643 µg/mL (≈ 2.32 µM).

The term NOAEL denotes the highest dose or exposure tested at which no adverse effect was seen.
